{"source": "patent US20050197292A1", "about": "“Compositions and methods for treating T-cell mediated pathological conditions” (priority 2004, published 2005)", "key": {"CD4 T cells": {"test_system": "CD4 T cells", "assay": "TCR-CD28 co-stimulated proliferation, [3H] thymidine incorporation, CD4 T cells", "assay_type": "cell-based, human", "conditions": "anti-CD3 150 ng/ml and anti-CD28 1 μg/ml coated, 72 h", "method": "(§1) 96-well plates were coated with the anti-CD3 and anti-CD28 mAb at 150 ng/ml and 1 μg/ml respectively in PBS overnight at 4° C., aspirated and coated with the control protein, CG57008-15, CG57008-12 or CG57008-14 for 4 hr at 37° C. Wells were aspirated and 150 μl of purified Human CD4+, CD8+ or polarized TH2 cells from healthy blood donors, or purified CD4+ or CD8+ T cells from B6 mice at a concentration of 0.7×10^6 cells/ml were added and cultured for 72 h at 37° C. Proliferation was measured by [^3H] thymidine incorporation by pulsing cells with 0.5 μCi of [^3H] thymidine 8 hr prior to harvesting. Cytokines were measured by ELISA using cells harvested at 72 hr."}, "CD8 T cells": {"test_system": "CD8 T cells", "assay": "TCR-CD28 co-stimulated proliferation, [3H] thymidine incorporation, CD8 T cells", "assay_type": "cell-based, human", "conditions": "anti-CD3 150 ng/ml and anti-CD28 1 μg/ml coated, 72 h", "method": "as §1"}}, "data": [{"substance": "CG201877-02 (ECD/FC): Tim1 - Mus musculus; Mature Igkappa, ECD, Fc, V5, His", "values": [{"measurement": "proliferation of CD4 T cells", "setting": "CD4 T cells", "result": "significantly inhibited"}, {"measurement": "proliferation of CD8 T cells", "setting": "CD8 T cells", "result": "significantly inhibited"}]}]}
